# Source: US20240327450A1, “GLUCOSE DERIVATIVES AND ANTICANCER AGENT USING SAME” (ORBIO CORPORATION, priority 2021, published 2024)
# What was measured:
# [1] = tested on: nutritional deficit pancreatic cancer cells; conditions: Onodera, T. et al. J. Biol. Chem. 295, 16678-16690, 2020; cited from earlier work
# [2] = tested on: mouse insulinoma MIN6 cells; experiment: Viable cell activity by Calcein-AM fluorescence in MIN6 cells; assay type: cell-based; conditions: for cellular activity expressed as Calcein intensity: MIN6 cells at 5 DIV, 1,000 μM, vs negative control KRB; for cellular activity as assessed with Calcein: 30 minutes, vs KRB alone
# Description: Effects of E2-ADG (synthesized in Example 2) and E2-ALG (synthesized in Example 4) on proliferation of cells were examined. A pancreatic beta cell line (insulinoma) MIN6 from mouse pancreas (Miyazaki J. et al., Endocrinology 127: 126-132, 1990) was used as the cells, and all experiments were performed using early passage cells with a passage number of 10 or less.
# (§1) In this experiment, approximately 3,000 MIN6 cells per well were seeded in each well of a 96-well plate. When 5 DIV elapsed from initiation of culture, wells to which E2-ALG was administrated and wells to which E2-ADG was administrated were arranged in the same plate with minimal external disturbance, and administration was performed according to the previously established method (Sasaki, A. et al., Human Cell 2016, 29, 37-45). The E2-ALG was dissolved in a buffer to a concentration of 1,000 μM, administered to the MIN6 cells for 10 or 30 minutes, and then washed out with a buffer solution without the E2-ALG. Meanwhile, the E2-ADG at a concentration of 1,000 μM was administered in the same manner. Carbenoxolone was pre-dissolved in a buffer solution for the purpose of excluding uptake via Hemichannel and Gap junction (Sasaki, A. et al., Human Cell 2016, 29, 37-45).
# A change in cellular activity was assessed using a live cell marker Calcein-AM. The Calcein-AM is permeable to a cell membrane, and after entering a cell, an AM moiety is cleaved by an esterase activity of the cell to produce Calcein which emits green fluorescence. The Calcein-AM was applied to the MIN6 cells according to a conventional method, green fluorescence emitted by the cells was quantitatively measured using a confocal quantitative image cytometer CellVoyager CQ1 (Yokogawa Electric Corporation), and image analysis was performed using software attached to the CQ1. A difference between an E2-ALG administration group and an E2-ADG administration group was statistically compared using Stat View 5.0. The Bonferroni-Dunn test was used for the statistical comparison. A value shown by MIN6 cells at the same time as above in a Krebs-Ringer buffer (KRB) solution without E2-ALG or E2-ADG was used as a negative control.
# (§2) An administration test was performed in the same manner as in Example 5-1, except that M2-ADG (synthesized in Example 1) was used instead of E2-ADG, and M2-ALG (synthesized in Example 3) was used instead of E2-ALG. However, the M2-ADG or the M2-ALG was administered for 30 minutes after 4 DIV from initiation of culture, and a concentration of the M2-ADG or the M2-ALG was 10 μM, 100 μM, or 1,000 μM.
# [3] = tested on: mouse insulinoma MIN6 cells; experiment: Cell death by Propidium Iodide (PI) signal in MIN6 cells; assay type: cell-based; conditions: for occurrence of cell death (PI) / PI-positive cell death: MIN6 cells at 5 DIV, 1,000 μM; for occurrence of cell death (PI): both 10-minute and 30-minute administrations, vs negative control KRB; for effect on the cells (proportion of dead cells, PI) / cytotoxicity (PI) eliminated by PHT: MIN6 cells at 11 DIV; for effect on the cells (proportion of dead cells, PI) / proportion of dead cells expressed as a PI value / cytotoxicity (PI) eliminated by PHT: 90 minutes; for effect on the cells (proportion of dead cells, PI) / proportion of dead cells expressed as a PI value: vs KRB solution alone; for proportion of dead cells expressed as a PI value: MIN6 cells at 11 DIV, 1,000 μM; for cytotoxicity (PI) eliminated by PHT: compound 1,000 μM, PHT 150 μM
# Description: as §1
# An extent of occurrence of cell death was assessed using Propidium Iodide (PI), a red dye that is impermeable to a cell membrane. The PI was applied to the MIN6 cells simultaneously with the Calcein-AM. The principle of assessing cell death using PI is as follows. […] However, when the PI nonspecifically enters a cell due to loss of integrity of a cell membrane caused by deterioration of a cell state, the PI binds to a nucleus of the cell, causing the nucleus to emit red fluorescence. A degree of the red fluorescence was quantitatively measured using the CellVoyager CQ1, and image analysis was performed using the software attached to the CQ1. Additionally, the degree of occurrence of cell death was evaluated by statistically comparing the control group with the administration groups or the E2-ALG administration group with the E2-ADG administration group.
# Using MIN6 cells with a passage number of 10 or less, E2-ALG or E2-ADG was applied to the MIN6 cells at a concentration of 1,000 μM for 90 minutes at 11 DIV of culture at a time when spheroids with a diameter of 100 μm or more are normally formed. Specifically, approximately 1,000 MIN6 cells per well were seeded in each well of a 96-well plate and E2-ALG was dissolved in a buffer to a concentration of 10 μM or 1,000 μM at 11 DIV, administered to the MIN6 cells for 90 minutes, and then rapidly washed out with a buffer solution without E2-ALG. Similarly, E2-ADG was applied simultaneously to other wells in the same plate. A cell death marker PI was used to statistically compare a control group with administration groups or an E2-ALG administration group with an E2-ADG administration group (FIG. 3).
# Whether cell death in MIN6 cells caused by E2-ALG and E2-ADG was via a specific transport mechanism that is inhibited by PHT was analyzed on the same plate. […] The E2-ADG was also tested simultaneously in the same manner on the same plate and both were compared to a control.
# as §2
# colon cancer cells = conditions: Et3PAuCl alone; ACS Med. Chem. Lett. 8: 997-1001, 2017; cited from earlier work
# [4] = MIN6 cells at 4 DIV, 10 μM, 30 minutes, vs negative control
# [5] = MIN6 cells at 4 DIV, 100 μM, 30 minutes, vs negative control
# [6] = MIN6 cells at 4 DIV, 1,000 μM, 30 minutes
smiles,measurement,setting,value
CC(=O)OC[C@H]1O[C@@H]([S-])[C@H](OC(C)=O)[C@@H](OC(C)=O)[C@@H]1OC(C)=O.CCP(CC)CC.[Au+] [Auranofin],effect in nutritional deficit pancreatic cancer cells,[1],effective
CCP(CC)CC.OC[C@@H]1OC(O)[C@@H]([S][Au])[C@H](O)[C@H]1O (stereo partly drawn) [Compound E2-ALG],cellular activity expressed as Calcein intensity,[2]; 10-minute administration,"slightly decreased an average value of the cellular activity compared to the negative control group, but there was no statistically significant difference"
same,cellular activity expressed as Calcein intensity,[2]; 30-minute administration,the cellular activity was clearly decreased compared to the negative control
same,occurrence of cell death (PI),[3],no statistically significant difference
same,"effect on the cells (proportion of dead cells, PI)",[3]; 10 μM,"larger than that of the negative control (the KRB solution alone) as an average value, but not significantly different"
same,proportion of dead cells expressed as a PI value,[3],significant increase in a proportion of dead cells
same,cytotoxicity (PI) eliminated by PHT,[3],approximately 75%
CCP(CC)CC.OC[C@H]1OC(O)[C@H]([S][Au])[C@@H](O)[C@@H]1O (stereo partly drawn) [Compound E2-ADG],cellular activity expressed as Calcein intensity,[2]; 10-minute administration,"slightly lower than that for the E2-ALG, but there was no statistically significant difference therebetween"
same,cellular activity expressed as Calcein intensity,[2]; 30-minute administration,clear decrease in cellular activity
same,occurrence of cell death (PI),[3],no statistically significant difference
same,"effect on the cells (proportion of dead cells, PI)",[3]; 10 μM,"larger than that of the negative control (the KRB solution alone) as an average value, but not significantly different"
same,proportion of dead cells expressed as a PI value,[3],significant increase in a proportion of dead cells
same,cytotoxicity (PI) eliminated by PHT,[3],approximately 75%
"CC[PH](CC)(CC)[Au][S][C@@H]1OC(CO)[C@@H](O)[C@H](O)C1O (stereo partly drawn) [DGG, reference compound]",PI-positive cell death,[3]; 10 minutes,more PI-positive cell death than the negative control
same,PI-positive cell death,[3]; 30 minutes,distinct PI-positive cell death
"CC[PH](CC)(CC)[Au][S][C@H]1O[C@@H](CO)[C@H](O)[C@@H](O)[C@@H]1O [LGG, reference compound]",PI-positive cell death,[3]; 10 minutes,PI-positive cell death comparable to that of the negative control
same,PI-positive cell death,[3]; 30 minutes,only about as much PI-positive cell death as a negative control group
"CCP(CC)CC.[Au+].[Cl-] [Et3PAuCl, chloro(triethylphosphine)gold(I)]",cytotoxicity to colon cancer cells,colon cancer cells,cytotoxic
CP(C)C.OC[C@@H]1OC(O)[C@@H]([S][Au])[C@H](O)[C@H]1O (stereo partly drawn) [Compound M2-ALG],cellular activity as assessed with Calcein,"[2]; MIN6 cells at 4 DIV, 10 μM",no significant difference in cellular activity
same,cellular activity as assessed with Calcein,"[2]; MIN6 cells at 4 DIV, 100 μM",no significant difference in cellular activity
same,cellular activity as assessed with Calcein,"[2]; MIN6 cells at 4 DIV, 1,000 μM",significant decrease in cellular activity
same,degree of cell death (PI),[3]; [4],no difference in a degree of cell death
same,degree of cell death (PI),[3]; [5],"an average value increased, but there was still no significant difference from the negative control"
same,degree of cell death (PI),[3]; [6],clear cell death was observed
CP(C)C.OC[C@H]1OC(O)[C@H]([S][Au])[C@@H](O)[C@@H]1O (stereo partly drawn) [Compound M2-ADG],cellular activity as assessed with Calcein,"[2]; MIN6 cells at 4 DIV, 10 μM",no significant difference in cellular activity
same,cellular activity as assessed with Calcein,"[2]; MIN6 cells at 4 DIV, 100 μM",no significant difference in cellular activity
same,cellular activity as assessed with Calcein,"[2]; MIN6 cells at 4 DIV, 1,000 μM",significant decrease in cellular activity
same,degree of cell death (PI),[3]; [4],no difference in a degree of cell death
same,degree of cell death (PI),[3]; [5],"an average value increased, but there was still no significant difference from the negative control"
same,degree of cell death (PI),[3]; [6],clear cell death was observed
